Experiment [1] has as its system HepG2 cells. The experiment is described as follows: F1P Cell-Based Assay (EC50), 13C6-fructose-1-phosphate in HepG2 cells (cell culture medium or 50% human plasma).
In experiment [2] the target is human KHK-C (Homo sapiens (Human), UniProt P50053). The experiment is described as follows: KHK Biochemical Assay (IC50), ADP-Glo, KHK-C. Particulars: average of at least two separate assays. The method in brief: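 ADP-Glo luminescence measured ADP made over a 4 h room-temperature reaction of ATP plus fructose, started after 30 min compound–enzyme pre-incubation. Buffer: 50 mM Hepes pH 7.4, 140 mM KCl, 5 mM MgCl2, 0.01% Triton-X. Enzyme was His-tagged, BL21 (DE3)-expressed, Ni-NTA-purified; compounds in 1:3 DMSO dilution series.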
Sequence of human KHK-C (P50053 whole entry): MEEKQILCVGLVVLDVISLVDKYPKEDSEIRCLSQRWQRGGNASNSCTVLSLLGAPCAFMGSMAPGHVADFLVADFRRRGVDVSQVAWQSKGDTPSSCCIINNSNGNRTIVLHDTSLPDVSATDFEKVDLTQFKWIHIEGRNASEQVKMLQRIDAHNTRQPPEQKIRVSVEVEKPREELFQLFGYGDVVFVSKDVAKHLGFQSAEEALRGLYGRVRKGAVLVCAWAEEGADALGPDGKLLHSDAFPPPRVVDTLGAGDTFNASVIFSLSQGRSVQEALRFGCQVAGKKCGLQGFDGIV
(ADP-Glo first removes unused ATP, then detects ADP through luciferase.)

[3] abbreviates: Homo sapiens, HepG2, HepG2 cells, 50% human plasma, read-out: F1P 50% HP EC50.
Setting [4] is: Homo sapiens, HepG2, read-out: F1P 10% FBS EC50, HepG2 cells, cell culture medium (10% FBS).
[5] abbreviates: HepG2 cells, 50% human plasma, read-out: F1P 50% HP EC50.
Where [6] appears, read: read-out: F1P 10% FBS EC50, HepG2 cells, cell culture medium (10% FBS).

Like-named read-outs stand apart in the source and are kept apart here. Bounds are passed on as bounds.

We go through 18 compounds from patent publication US12410160B2 (Gilead Sciences, Inc., priority 2021, dated 2025).

In general, EC50 refers to the concentration that produces a half-maximal response. Broadly, the IC50 is the concentration at which inhibition is half-maximal. The low end stands for inhibition by little substance, the high end for a need for much substance. Turning to `C[C@H]1CCN1c1nc2c(c(-c3cccc(S(=N)(=O)C(F)F)c3)n1)CCC2` (stereo partly drawn) [Example 602, (difluoromethyl)(imino)(3-(2-((S)-2-methylazetidin-1-yl)-6,7-dihydro-5H-cyclopenta[d]pyrimidin-4-yl)phenyl)-λ^6-sulfanone], the EC50 in experiment [1] (setting [3]) was over 0.5 µM; in experiment [1] (setting [4]) it was 0.0929 µM. Moreover, in experiment [2], the midpoint of inhibition, the IC50, lay at 0.0597 µM.
Regarding `C[C@H]1[C@H](O)CN1c1nc(-c2cccc(S(=N)(=O)C(F)F)c2)c2c(n1)C(F)(F)CC2` (stereo partly drawn) [Example 603, (3-(7,7-difluoro-2-((2S,3R)-3-hydroxy-2-methylazetidin-1-yl)-6,7-dihydro-5H-cyclopenta[d]pyrimidin-4-yl)phenyl)(difluoromethyl)(imino)-λ^6-sulfanone], the EC50 turned out to be 0.103 µM in experiment [1] (setting [3]) and 0.0772 µM in experiment [1] (setting [4]). Moreover, half-maximal inhibition in experiment [2] (IC50) was put at 0.0255 µM.
With `C[C@H]1CCN1c1nc(-c2ccc3c(c2)[C@H](NS(C)(=O)=O)CC3)c2c(n1)C(F)(F)CC2` [Example 608, N—((R)-6-(7,7-difluoro-2-((S)-2-methylazetidin-1-yl)-6,7-dihydro-5H-cyclopenta[d]pyrimidin-4-yl)-2,3-dihydro-1H-inden-1-yl)methanesulfonamide], the EC50 in experiment [1] (setting [3]) worked out at 0.0232 µM; in experiment [1] (setting [4]), 0.0068 µM. The compound further had an IC50 in experiment [2] of 0.0007 µM.
On to `C[C@H]1[C@H](O)CN1c1nc(-c2cccc([C@H]3CCS(=O)(=O)N3)c2)c2c(n1)C(F)(F)CC2` [Example 617], for which the EC50 in experiment [1] (setting [5]) stood at 0.0307 µM; in experiment [1] (setting [6]) it was 0.0102 µM. In addition, the IC50 in experiment [2] amounted to 0.0035 µM.
Regarding `C[C@H]1[C@H](O)CN1c1nc(-c2cccc(CN3CCCS3(=O)=O)c2)c2c(n1)C(F)(F)CC2` [Example 620], the values for the EC50 in experiment [1] (setting [3]) and in experiment [1] (setting [4]) were 0.113 µM and 0.0191 µM, respectively. Moreover, in experiment [2], the IC50 came to 0.0097 µM.
Take `C[C@H]1[C@H](O)CN1c1nc(-c2ccc3c(c2)OC[C@@H]3NS(=O)(=O)C2CC2)c2c(n1)C(F)(F)CC2` [Example 625]: the figures for the EC50 in experiment [1] (setting [3]) and in experiment [1] (setting [4]) were 0.0722 µM and 0.0176 µM, respectively. In addition, the IC50 in experiment [2] was found to be 0.0015 µM.
With `C[C@H]1[C@H](O)CN1c1nc(-c2ccc3c(c2)OC[C@@H]3NS(=O)(=O)c2ccccc2)c2c(n1)C(F)(F)CC2` [Example 626, N-((R)-6-(7,7-difluoro-2-((2S,3R)-3-hydroxy-2-methylazetidin-1-yl)-6,7-dihydro-5H-cyclopenta[d]pyrimidin-4-yl)-2,3-dihydrobenzofuran-3-yl)benzenesulfonamide], the results for the EC50 in experiment [1] (setting [3]) and in experiment [1] (setting [4]) were 0.123 µM and 0.0356 µM, respectively. Further, inhibition in experiment [2] was half-maximal at 0.0268 µM (IC50).
With `C[C@H]1[C@H](O)CN1c1nc(-c2ccc3c(c2)OC[C@@H]3NS(=O)(=O)CC#N)c2c(n1)C(F)(F)CC2` [Example 627, 1-cyano-N-((R)-6-(7,7-difluoro-2-((2S,3R)-3-hydroxy-2-methylazetidin-1-yl)-6,7-dihydro-5H-cyclopenta[d]pyrimidin-4-yl)-2,3-dihydrobenzofuran-3-yl)methanesulfonamide], the values for the EC50 in experiment [1] (setting [3]) and in experiment [1] (setting [4]) were 0.0041 µM and 0.0045 µM, respectively. For the same compound, the IC50 in experiment [2] came to 0.006 µM.
With `CC1(C)CC(NS(C)(=O)=O)c2ccc(-c3nc(N4CC[C@@H]4CF)nc4c3CCC4(F)F)cc21` (stereo partly drawn) [Example 629, N-(5-(7,7-difluoro-2-((R)-2-(fluoromethyl)azetidin-1-yl)-6,7-dihydro-5H-cyclopenta[d]pyrimidin-4-yl)-3,3-dimethyl-2,3-dihydro-1H-inden-1-yl)methanesulfonamide], the EC50 in experiment [1] (setting [3]) was over 0.5 µM; in experiment [1] (setting [4]), 0.107 µM. This compound also had an IC50 in experiment [2] of 0.0041 µM.
Turning to `C[C@H]1[C@H](O)CN1c1nc(-c2ccc3c(c2)C(C)(C)CC3NS(C)(=O)=O)c2c(n1)C(F)(F)CC2` (stereo partly drawn) [Example 630, N-(5-(7,7-difluoro-2-((2S,3R)-3-hydroxy-2-methylazetidin-1-yl)-6,7-dihydro-5H-cyclopenta[d]pyrimidin-4-yl)-3,3-dimethyl-2,3-dihydro-1H-inden-1-yl)methanesulfonamide], the figures for the EC50 in experiment [1] (setting [3]) and in experiment [1] (setting [4]) were over 0.5 µM and 0.0688 µM, respectively. Also, in experiment [2], half-maximal inhibition (IC50) required 0.0024 µM.
On to `C[C@H]1CCN1c1nc(-c2ccc3c(c2)S(=O)(=O)CC3N)c2c(n1)C(F)(F)CC2` (stereo partly drawn) [Example 656, 6-[7,7-difluoro-2-[(2S)-2-methylazetidin-1-yl]-5,6-dihydrocyclopenta[d]pyrimidin-4-yl]-1,1-dioxo-2,3-dihydrobenzothiophen-3-amine], for which the EC50 is 0.0118 µM in experiment [1] (setting [3]) and 0.0045 µM in experiment [1] (setting [4]). For the same compound, the IC50 in experiment [2] turned out to be 0.0017 µM.
With `C[C@H]1[C@H](O)CN1c1nc(-c2ccc3c(c2)CCNC3)c2c(n1)C(F)(F)CC2` [Example 657, (2S,3R)-1-[7,7-difluoro-4-(1,2,3,4-tetrahydroisoquinolin-6-yl)-5,6-dihydrocyclopenta[d]pyrimidin-2-yl]-2-methyl-azetidin-3-ol], the EC50 was found to be 0.0041 µM in experiment [1] (Homo sapiens, HepG2, read-out: F1P 10% FBS EC50) and 0.0042 µM in experiment [1] (Homo sapiens, HepG2, read-out: F1P 50% HP EC50). The compound further displayed an IC50 in experiment [2] of 0.0027 µM.
As to `C[C@H]1[C@H](O)CN1c1nc(-c2ccc([C@@H](N)C(F)F)cc2)c2c(n1)C(F)(F)CC2` [Example 659, (2S,3R)-1-[4-[4-[(1R)-1-amino-2,2-difluoro-ethyl]phenyl]-7,7-difluoro-5,6-dihydrocyclopenta[d]pyrimidin-2-yl]-2-methyl-azetidin-3-ol], the EC50 in experiment [1] (setting [3]) came out at 0.054 µM; in experiment [1] (setting [4]), 0.0425 µM. Moreover, the IC50 in experiment [2] came out at 0.008 µM.
Consider `C[C@H]1[C@H](O)CN1c1nc(-c2cccc(N=S(C)(=O)C3CC3)c2)c2c(n1)C(F)(F)CC2` (stereo partly drawn) [Example 667, (2S,3R)-1-[4-[3-[(cyclopropyl-methyl-oxo-λ^6-sulfanylidene)amino]phenyl]-7,7-difluoro-5,6-dihydrocyclopenta[d]pyrimidin-2-yl]-2-methyl-azetidin-3-431], for which the figures for the EC50 in experiment [1] (setting [5]) and in experiment [1] (setting [6]) were 0.305 µM and 0.0613 µM, respectively. The compound also gave an IC50 in experiment [2] of 0.0423 µM.
In the case of `C[C@H]1CCN1c1nc(-c2cccc(N=S(C)(=O)C3CC3)c2)c2c(n1)C(F)(F)CC2` (stereo partly drawn) [Example 668, cyclopropyl-[3-[7,7-difluoro-2-[(2S)-2-methylazetidin-1-yl]-5,6-dihydrocyclopenta[d]pyrimidin-4-yl]phenyl]imino-methyl-oxo-λ^6-sulfane], the 50% effective concentration (EC50) is over 0.5 µM in experiment [1] (setting [3]) and 0.0467 µM in experiment [1] (setting [4]). Further, it took 0.0321 µM to reach half-maximal inhibition in experiment [2] (IC50).
In the same order, the values of `C[C@H]1CCN1c1nc(-c2cccc(N=S3(=O)CCCC3)c2)c2c(n1)C(F)(F)CC2` [Example 669, 1-[3-[7,7-difluoro-2-[(2S)-2-methylazetidin-1-yl]-5,6-dihydrocyclopenta[d]pyrimidin-4-yl]phenyl]iminothiolane 1-oxide] are 0.429 µM, 0.0286 µM and 0.0162 µM.
Regarding `C[C@H]1[C@H](O)CN1c1nc(-c2ccc3c(c2)OC[C@@H]3n2ccnn2)c2c(n1)C(F)(F)CC2` [Example 670], the results for the EC50 in experiment [1] (setting [3]) and in experiment [1] (setting [4]) were 0.0314 µM and 0.0253 µM, respectively. In experiment [2], this compound gave an IC50 of 0.0243 µM.
Regarding `C[C@H]1[C@H](O)CN1c1nc(-c2cccc(N=S3(=O)CCCC3)c2)c2c(n1)C(F)(F)CC2` [Example 671, (2S,3R)-1-[7,7-difluoro-4-[3-[(1-oxothiolan-1-ylidene)amino]phenyl]-5,6-dihydroeyelopenta[d]pyrimidin-2-yl]-2-methyl-azetidin-3-ol], the EC50 in experiment [1] (setting [3]) worked out at 0.269 µM; in experiment [1] (setting [4]) it was 0.0351 µM. The same compound gave an IC50 in experiment [2] of 0.0329 µM.
